# Where two headings read alike, the source gives them in different places.
# Experiments:
# [1] = healthy mice, blood 5 min p.i., radio-HPLC, mean ± SD; for intact radiotracer, % of remaining circulating activity in blood: 200 pmol/25 MBq i.v.; for intact radiotracer in blood: 2000 pmol/25 MBq i.v.
# Protocol: To determine the stability of [^111In]SB3 −/+ PA in vivo, healthy mice (n = 3 per group) were intravenously injected with 200 pmol/25 MBq or 2000 pmol/25 MBq [^111In]SB3 (volume 100 μl), co-injected with either 300 μg/100 μl PA (Peptides International Inc.) in 0.5 % ethanol or 100 μl saline solution. Five minutes after injection of [^111In]SB3 −/+ PA, blood (0.5–1 ml) was collected by cardiac puncture, while animals were under isoflurane/O2 anesthesia, and transferred to blood-collection tubes containing 90 USP units of lithium heparin (spray coated), HPLC grade ethanol was added in a 1:1 (v/v) ratio, and the tubes were placed on ice. Blood samples were centrifuged 5 min at 1250g, and supernatant was collected. Next, the collected supernatant was centrifuged again for 5 min at 12,500g. The secondary supernatant was collected and diluted with MilliQ down to < 25 % ethanol before injection on HPLC. The samples were analyzed by HPLC (Alliance, Waters) including a Symmetry C18 column (5 μm × 4.6 mm × 250 mm). Elution was performed in a 1-ml/min flow, completed in 30 min, with the gradient 0–5 min 100 % A, 5–5.01 min 40 % A 60 % B, 5.01–20 min 20 % A 80 % B, 20–20.01 min 100 % B, 20.01–25 min 100 % B, and 25.01–30 min 100 % A, where A was 0.1 % TFA in H2O and B was methanol.
# [2] = tested on: PC-3 tumor xenografts (GRPR-expressing); settings: 1 h p.i.; for tumor ROI signal intensity on SPECT: 25 MBq/200 pmol i.v.
# Protocol: For SPECT/MRI, PC-3-xenografted mice were intravenously injected with 25 MBq/200 pmol [^111In]SB3, co-injected with either 300 μg/100 μl PA in 0.5 % ethanol or 100 μl saline solution. Subsequently, imaging was performed 1, 4, and 24 h p.i. of the radiotracer, while animals were anesthetized using isoflurane/O2, body temperature was maintained using warm air flow, and respiratory rate was monitored. Whole-body SPECT images were acquired using the novel and state-of-the-art four-head multipinhole system (NanoScan SPECT/MRI, Mediso Medical Imaging) in 30 min (28 projections, 29 s/projection, and 7-cm axial field of view). Images were reconstructed using OSEM with six iterations and four subsets on a 120 × 120 matrix with 0.25 × 0.25 × 0.25-mm isotropic voxels. MR-based attenuation correction was applied to all images. T2 MR images were acquired using a spin echo sequence (TR/TE = 4500/52 ms) with a 35-mm-diameter solenoid coil. Other scan parameters were field of view 70 mm, matrix 256 × 128, and slice thickness 1 mm with 0.1-mm spacing between slices. An ROI of the tumor was drawn by an experienced technician on the T2-weighted MR image to measure the intensity in the SPECT image.
# [3] = Indium-111 labeled; cited from earlier work
# Description: Preclinical as well as clinical PET imaging studies using [^68Ga]SB3 have been performed with great success. […] To increase the in vivo stability of radiopeptides, multiple solutions are available, including structural modifications of a peptide or the novel approach of inhibition of enzymes responsible for enzymatic degradation. Since structural modifications are time consuming, and ...
# [4] = tested on: PC-3 tumor xenografts (GRPR-expressing); experiment: in vivo; settings: mouse
# Protocol: (§1) Healthy or xenografted Balb c nu/nu male mice (Janvier) were used in this study. To obtain xenografted mice, animals were injected subcutaneously in the right shoulder with PC-3, 3 × 10^6 cells in Matrigel (total volume 150 μl, solution 66 % RPMI, 33 % Matrigel) per animal. Prior to tumor cell inoculation, the PC-3 cells were cultured in RPMI medium supplemented with 10 % fetal bovine serum, 5000 IU/ml penicillin, and 5000 μg/ml streptomycin at 37 °C in a humidified atmosphere containing 5 % CO2. PC295 is an androgen-dependent, patient-derived cell line with high GRPR expression. Xenografts were generated by subcutaneous implantation of the PC295 human prostate tumor as previously described and were stored at − 80 °C until further use. All culture supplies were purchased at Gibco.
# (§2) Tumor-bearing mice received an intravenous injection of 200 pmol/2.5 MBq [^111In]SB3, co-injected with either 300 μg/100 μl PA in 0.5 % ethanol or 100 μl saline solution (n = 4 animals per group for each time point). […] To determine specificity of tumor and organ uptake, blocking experiments were performed; an additional group of animals (n = 3) was pre-injected with an excess (20 nmol) of unlabeled SB3 followed by injection of the radiotracer −/+ PA. At three different time points p.i. (1, 4, and 24 h), animals were euthanized and blood, organs, and tumors were collected, weighed, and measured in a γ-counter (1480 WIZARD automatic γ-counter, PerkinElmer). For γ-counter measurements, an isotope specific energy window, a counting time of 60 s, and a counting error ≤ 5 % were used. Results were expressed as the percentage of the injected dose per gram tissue (% ID/g tissue). Animals that had ≥ 7 % ID in the tail were excluded.
# (§3) All statistical evaluations were performed with GraphPad Prism software (version 5.01). The IC50 value was calculated using a log (inhibitor) vs response model. To compare in vivo stability −/+ PA, radioactivity uptake in the tumor −/+ PA and radioactivity uptake in the tumor without and with an excess of unlabeled peptide an unpaired t test was used. P values < 0.05 were considered statistically significant. Tumor to organ uptake ratios were calculated per animal and expressed as mean and standard deviation per group.
# in vivo = settings: male, Balb c nu/nu, mouse, iv, total radioactivity
# Protocol: as §1, §2, §3
# human GRPR = human GRPR (Homo sapiens, UniProt P30550); experiment: biochemical
# Protocol: as §3
# [5] = pre-clinical studies of PA combined with radiotracers; cited from earlier work
# Description: For application in patients, NEP inhibitors that are already approved for clinical use such as Sacubitril and Racecadotril might be applied.
# [6] = co-injected with 300 μg PA, n = 3
# human GRPR, sequence (P30550 whole entry): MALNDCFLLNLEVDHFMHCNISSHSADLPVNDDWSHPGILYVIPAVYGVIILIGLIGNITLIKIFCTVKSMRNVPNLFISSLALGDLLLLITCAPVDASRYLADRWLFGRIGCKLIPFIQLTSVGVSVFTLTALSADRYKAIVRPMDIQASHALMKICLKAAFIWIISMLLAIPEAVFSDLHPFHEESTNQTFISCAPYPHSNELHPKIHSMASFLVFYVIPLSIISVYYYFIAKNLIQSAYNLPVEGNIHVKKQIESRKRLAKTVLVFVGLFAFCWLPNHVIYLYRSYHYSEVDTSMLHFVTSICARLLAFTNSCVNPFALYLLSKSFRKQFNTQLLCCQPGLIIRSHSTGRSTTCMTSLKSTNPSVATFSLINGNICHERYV
smiles,measurement,setting,value
"CCNC(=O)[C@H](CC(C)C)NC(=O)[C@H](Cc1c[nH]cn1)NC(=O)CNC(=O)[C@@H](NC(=O)[C@H](C)NC(=O)[C@H](Cc1c[nH]c2ccccc12)NC(=O)[C@H](CCC(N)=O)NC(=O)[C@@H](Cc1ccccc1)NC(=O)COCC(=O)Nc1ccc(CNC(=O)CN2CCN(CC(=O)O)CCN(CC(=O)O)CCN(CC(=O)O)CC2)cc1)C(C)C [[^111In]SB3, metal not drawn]","intact radiotracer, % of remaining circulating activity in blood",[1]; [6],86.7 ± 1.5%
same,"intact radiotracer, % of remaining circulating activity in blood","[1]; without PA, n = 3",37.3 ± 2.5%
same,intact radiotracer in blood,[1]; [6],87.9 ± 1.1%
same,intact radiotracer in blood,"[1]; without PA, one animal excluded",42.0 ± 0.2%
same,tumor ROI signal intensity on SPECT,[2]; with 300 μg PA,2434 kBq/ml
same,tumor ROI signal intensity on SPECT,[2]; without PA,1424 kBq/ml
same,increase in tumor signal intensity with PA vs without PA,"[2]; ROI analysis, 25 MBq/200 pmol",70%
same,in vivo stability,[3],poor in vivo stability
same,uptake in the pancreas and the tumor with an excess of unlabeled SB3 (blocking),[4],significantly decreased
same,tissue uptake at 1 h,"in vivo; 200 pmol, pancreatic uptake",4.1 ± 2.3 %ID/g
same,tissue uptake at 1 h,"in vivo; 200 pmol, renal uptake",3.9 ± 1.4 %ID/g
same,tissue to tissue ratio at 1 h,"in vivo; 200 pmol, tumor to kidney ratio",2.8 ± 1
same,tissue to tissue ratio at 1 h,"in vivo; 200 pmol, tumor to pancreas radioactivity ratio",3.4 ± 2.5
same,tissue uptake at 1 h,"in vivo; 200 pmol, tumor uptake",10.2 ± 1.5 %ID/g
same,tissue uptake at 4 h,"in vivo; 200 pmol, tumor uptake",8.3 ± 1.1 %ID/g
same,tissue uptake at 24 h,"in vivo; 200 pmol, tumor uptake",3.1 ± 1.9 %ID/g
same,tissue uptake at 1 h,in vivo; pancreatic uptake,10.1 ± 4.3 %ID/g
same,tissue uptake at 1 h,in vivo; renal uptake,4.5 ± 1.4 %ID/g
same,tissue to tissue ratio at 1 h,in vivo; tumor to kidney ratio,4.8 ± 2.2
same,tissue to tissue ratio at 1 h,in vivo; tumor to pancreas radioactivity ratio,2.2 ± 0.8
same,tissue uptake at 1 h,in vivo; tumor uptake,19.7 ± 3.5 %ID/g
same,tissue uptake at 4 h,in vivo; tumor uptake,17.6 ± 5.1 %ID/g
same,tissue uptake at 24 h,in vivo; tumor uptake,6.5 ± 3.3 %ID/g
"CCNC(=O)[C@H](CC(C)C)NC(=O)[C@H](Cc1c[nH]cn1)NC(=O)CNC(=O)[C@@H](NC(=O)[C@H](C)NC(=O)[C@H](Cc1c[nH]c2ccccc12)NC(=O)[C@H](CCC(N)=O)NC(=O)[C@@H](Cc1ccccc1)NC(=O)COCC(=O)Nc1ccc(CNC(=O)CN2CCN(CC(=O)O)CCN(CC(=O)O)CCN(CC(=O)O)CC2)cc1)C(C)C [SB3, Sarabesin 3]",IC50,human GRPR,3.5 nM
"CC(C)C[C@H](NP(=O)(O)O[C@@H]1O[C@@H](C)[C@H](O)[C@@H](O)[C@H]1O)C(=O)N[C@@H](Cc1c[nH]c2ccccc12)C(=O)O [PA, phosphoramidon]",adverse events,[5],have not indicated any adverse events

# Reference: PMC6244536, “In Vivo Stabilized SB3, an Attractive GRPR Antagonist, for Pre- and Intra-Operative Imaging for Prostate Cancer” (Molecular Imaging and Biology, 2018)
